{"source": "ChEMBL document CHEMBL4602622", "about": "“Serendipitous discovery of aryl boronic acids as β-lactamase inhibitors” (Bioorg Med Chem Lett, 2020)"}
{"assay": "Inhibition of Pseudomonas aeruginosa AmpC", "units": {"IC50": "µM"}}
{"smiles": "C1=NC2(CCc3ccc(-c4ccccc4)cc3C2)CN1", "note": "(stereo in doubt; 1)", "IC50": 15}
{"smiles": "C1=NC2(CCc3ccc(-c4ccccc4)cc3C2)CN1", "note": "(stereo in doubt)", "IC50": "> 100"}
{"smiles": "O=C(c1nc(-c2ccccc2)cs1)N1CCC(c2ccccn2)C1", "note": "(stereo in doubt)", "IC50": "> 100"}
{"smiles": "O=C(c1nc(-c2ccccc2)cs1)N1CCC(c2ccccn2)C1", "note": "(stereo in doubt; 2)", "IC50": 43}
